# Measured values as given in patent US20110070232A1, “Combination Therapy with an Antitumor Alkaloid” (Pharma Mar, S.A., priority 2008, published 2011).
# Like-named read-outs stand apart in the source and are kept apart here.
# Legend:
# [1] = tested on: BT-474 (breast cancer) cell line; experiment: IC50 determination, MIT (tetrazolium) assay, 72 h (Example 18); type: cell-based; conditions: Homo sapiens, BT-474, 72 h
# Protocol: BT-474 cells were grown in RPMI supplemented with 1% ITS (insulin, transferrin and selenium), 10% Fetal Bovine Serum (FBS), 1% penicillin/streptomycin and 2 mM L-glutamine.
# Before plating, cell cultures were trypsinized and cell number estimated using an automated flow cytometer.
# Cells were harvested and seeded in 96 well microtiter plates at the appropriate cell density (5,000-10,000 cells) in 150 μL of media and incubated for 24 hours to allow the cells to attach before drug addition.
# After the incubation period (72 hours), 50 μL of MIT solution was added to each microtiter well and incubated for further 8 hours at 37° C. The culture medium was then removed and 50 μl, of DMSO were added to dissolve the MIT crystals. Optical densities were read at 540 nm on spectrophotometer microplate reader.
# IC50 values were calculated from an average of two to four assays for each of the test agents.
# Hs746T tumors = type: in vivo, mice; conditions: for % Inhibition: mg/kg/day: PM00104 0.90 IV, 5-FU 50 at DPI 15 and 100 at DPI 22 & 29 IP
# From the text: Female athymic nude mice (Harlan Sprague Dawley, Madison, Wis.) were utilized for all experiments. Animals were housed in ventilated rack caging with food and water ad libitum. The mice were acclimated for at least 5 days prior to tumor implantation with a tumor cell suspension.
# The tumor model used in these studies was Hs746T cell line, which was obtained from the ATCC (Manassas, Va.).
# Treatments were initiated on DPI 15.
# 5-FU was provided as a solution which was further diluted with water for injection.
# Tumor size measurements were recorded twice weekly from the treatment initiation until the termination of the study.
# Mean, standard deviation and standard error of the mean were determined for tumor volume for all animal groups at all assessments. Student's t test was performed on tumor volumes at each measurement day, including at the end of the study, to determine whether there were any statistically significant differences between combination treatment groups and single monotherapy treatment groups.
# [2] = PM00104 0.9, 5-FU 50 (DPI 15) then 100 (DPI 22 & 29), irinotecan 20, doxorubicin 6 mg/kg/day
SMILES,IC50 [1] [nM],% T/C on day 15 (Hs746T tumors; [2]) [%],% T/C on day 19 (Hs746T tumors; [2]) [%],% T/C on day 22 (Hs746T tumors; [2]) [%],% T/C on day 26 (Hs746T tumors; [2]) [%],% T/C on day 29 (Hs746T tumors; [2]) [%],% T/C on day 33 (Hs746T tumors; [2]) [%],% Inhibition (Hs746T tumors; day 15) [%],% Inhibition (Hs746T tumors; day 19) [%],% Inhibition (Hs746T tumors; day 22) [%],% Inhibition (Hs746T tumors; day 26) [%],% Inhibition (Hs746T tumors; day 29) [%],% Inhibition (Hs746T tumors; day 33) [%]
CC(=O)O[C@H]1C(=O)[C@@]2(C)[C@H]([C@H](OC(=O)c3ccccc3)[C@]3(O)C[C@H](OC(=O)[C@H](O)[C@@H](NC(=O)c4ccccc4)c4ccccc4)C(C)=C1C3(C)C)[C@]1(OC(C)=O)CO[C@@H]1C[C@@H]2O [paclitaxel],1.7,–,–,–,–,–,–,–,–,–,–,–,–
"O=c1[nH]cc(F)c(=O)[nH]1 [5-FU, 5-fluorouracil]",–,102.3,96.4,88.0,93.4,94.5,95.3,−2.3,3.6,12.0,6.6,5.5,4.7
